Test results taken from patent US20120289681A1, “CONJUGATES OF CELL-PENETRATING PEPTIDES AND PHOSPHORESCENT METALLOPORPHYRINS FOR INTRACELLULAR OXYGEN MEASUREMENT” (UNIVERSITY COLLEGE CORK, NATIONAL UNIVERSITY OF IRELAND CORK, priority 2009, published 2012).
Starred links: 1 amine or outer side, 2 acyl side, 3 side chain; linkers in the order of their positions; H or OH if unused. Non-standard residues stand in square brackets, D forms with d. Residues, ends and D or L forms follow the SMILES beside them. No end group written: not given here. *: point of attachment. X1 = CCOC(=O)CCC1=C(C)c2cc3[nH]c(cc4nc(cc5[nH]c(cc1n2)c(C)c5CCC(=O)OCC)C(C)=C4CCC(=O)NCCNC(=O)CCN1C(=O)CC(*)C1=O)c(C)c3CCC(=O)OCC; X2 = CC1=C(CCC(=O)O)c2cc3[nH]c(cc4nc(cc5[nH]c(cc1n2)c(CCC(=O)O)c5C)C(CCC(=O)*)=C4C)c(CCC(=O)O)c3C; X3 = S=C(Nc1ccc(CCN[*:1])cc1)[*:2]; PtCP‑NCS = not defined here

What was measured:
Assay type in all cases: cell-based
HCT116 cells = test: Cell loading with O2 probes in HCT116 cells
Protocol: PC12 cells were seeded in standard 96-well plates pre-coated with collagen IV at 5×10^4 cells/well, and differentiated for 3-5 days in RPMI supplemented with 1% horse serum, P/S, and 100 ng/ml nerve growth factor. HepG2 cells were cultured in DMEM supplemented with 10% FBS, 2 mM L-glutamine and P/S, CHO—in Ex-Cell CHO DHFR^− medium supplemented with 4 mM L-glutamine and 1 μM methotrexate, HCT116—in McCoy medium supplemented with 10% FBS, 2 mM L-glutamine and P/S. The samples with cells were then loaded by incubating them with 1-10 μM of the O2 probe (prepared as described in Example 1) in regular medium at 37° C., 5% CO2, for the required period of time. After incubation the cells were washed 3 times with medium and 0.1 ml of fresh medium were added to each well. For comparison, some samples with cells were loaded with 1.2 μM PtCP-BSA probe (Luxcel Biosciences) in the presence of 6 μM Endo-Porter, as previously described (Zhdanov A V et al—J Biol Chem 283:5650-5661; 2008). The plate with loaded cells and control samples was then measured on a time-resolved fluorescence (TR-F) plate reader Victor 2 (PerkinElmer) set at 37° C., using 340 nm excitation and 642 nm emission filters. Each well was measured several times by taking TR-F intensity reading at delay time of 30 μs and gate time 100 μs. Measured TR-F signals were averaged and used to assess the efficiency of loading. […]

PC12 cells [1] = test: Cell loading with O2 probes assessed by time-resolved fluorometry (TR-F plate reader)
Protocol: PC12 cells were seeded in standard 96-well plates pre-coated with collagen IV at 5×10^4 cells/well, and differentiated for 3-5 days in RPMI supplemented with 1% horse serum, P/S, and 100 ng/ml nerve growth factor. HepG2 cells were cultured in DMEM supplemented with 10% FBS, 2 mM L-glutamine and P/S, CHO—in Ex-Cell CHO DHFR^− medium supplemented with 4 mM L-glutamine and 1 μM methotrexate, HCT116—in McCoy medium supplemented with 10% FBS, 2 mM L-glutamine and P/S. The samples with cells were then loaded by incubating them with 1-10 μM of the O2 probe (prepared as described in Example 1) in regular medium at 37° C., 5% CO2, for the required period of time. After incubation the cells were washed 3 times with medium and 0.1 ml of fresh medium were added to each well. For comparison, some samples with cells were loaded with 1.2 μM PtCP-BSA probe (Luxcel Biosciences) in the presence of 6 μM Endo-Porter, as previously described (Zhdanov A V et al—J Biol Chem 283:5650-5661; 2008). The plate with loaded cells and control samples was then measured on a time-resolved fluorescence (TR-F) plate reader Victor 2 (PerkinElmer) set at 37° C., using 340 nm excitation and 642 nm emission filters. Each well was measured several times by taking TR-F intensity reading at delay time of 30 μs and gate time 100 μs. Measured TR-F signals were averaged and used to assess the efficiency of loading.
(§1) PC12 cells (seeded at 50,000 cells/well in standard 96 well plates and differentiated under standard conditions) were loaded with the cell-penetrating O2 probes in standard medium, using 1-10 uM probe concentrations, volume 100 ul/well and incubation time ranging from 20 min to 24 hrs. After probe loading wells were carefully washed three times with DME medium without phenol red and containing NGF. The same protocol was used for loading of adherent HCT116, HepG2 and SHSY5Y cells, using corresponding media.

PC12 cells [2] = test: Respiratory response of probe-loaded cells to stimulation with FCCP (lifetime on TR-F reader); settings: 1 uM FCCP
Protocol: as §1
Measurement of the cells loaded with probes was conducted on a TR-F plate reader Victor 2 (PerkinElmer, USA) at 37° C. as described in (O'Riordan T C et al—Anal Chem 79:9414-9419; 2007), using 340 nm excitation and 642 nm emission filters. Each well was measured repetitively every 1.8 minutes by taking two TR-F intensity readings at delay times of 30 μs (T1) and 70 μs (T2), using gate time 100 μs. Fluorescence intensity values at T1 (F1) and T2 (F2) were used for calculation of lifetime values using the following equation:
Lifetime [us]=(T2−T1)/ln(F1/F2),
For cell stimulation, the plate was monitored for 10-20 min to reach O2 and temperature equilibrium and obtain basal signals, then quickly withdrawn from the reader, compounds were added to the cells (10 μL of 10× stock solution) and monitoring was resumed. Metabolic effectors were added to the cells at the following final concentrations: 1 uM FCCP, 10 uM antimycin A, 0.5 uM Valinomycin, 5 mM EGTA, 100 mM KCl.

[3] = Cell viability assessment by total cellular ATP (CellTiter-Glo); settings: rat, differentiated PC12 cells
Protocol: Cell viability was assessed by measuring total cellular ATP in the loaded cells using CellTiter-Glo luminescent kit (Promega). PC12 cells were seeded into 96 well plates at concentration 50,000/well, differentiated for 3 days, loaded with peptide probe at a concentration 10 uM for 21 hrs, then washed. CellTiter-Glo reagent was then added to each well and chemiluminescence was measured on the Victor2 plate reader (Perkin-Elmer). The total luminescence signal of unloaded cells was taken as 100% viability. For the cells loaded with probes, no significant changes in ATP were observed and cell viability was retained at 93-95%.

cells [4] = test: Cell-penetrating / cell-loading ability (cell line not stated)
cells [5] = test: Toxicity of the dye/probe on cells (cell line not stated)

Molecule | loading of HCT116 cells (in words) (HCT116 cells) | uptake / accumulation in PC12 cells (in words) (PC12 cells [1]) | magnitude of respiratory response to FCCP in lifetime units (PC12 cells [2]) | viability at 21 h, 10 µM [3] | also measured
PtCP-BN: PtCP-NCS derivative labelled on N-terminal amino group of BN (bactenecin) peptide GPRPLPFPRPG ({PtCP‑NCS}-GPRPLPFPRPG; reading uncertain) | did not load well | low uptake |  |  | 
PtCP-BSA: conventional cell-impermeable O2 probe (Luxcel Biosciences), loaded with Endo-Porter transfection reagent [reference compound] |  |  |  |  | average fluorescence signals (cell loading) (PC12 cells [1]; probe loaded by transfection (Endo-Porter)): 60,000 cps
CCOC(=O)CCC1=C(C)c2cc3[nH]c(cc4nc(cc5[nH]c(cc1n2)c(C)c5CCC(=O)OCC)C(C)=C4CCC(=O)NCCNC(=O)CCN1C(=O)CC(SC[C@H](N)C(=O)N[C@@H](Cc2ccccc2)C(=O)N[C@@H](CCCNC(=N)N)C(=O)N[C@@H](CCCNC(=N)N)C(=O)N[C@@H](CCCNC(=N)N)C(=O)N[C@@H](CCCNC(=N)N)C(=O)N[C@@H](CCCNC(=N)N)C(=O)N[C@@H](CCCNC(=N)N)C(=O)N[C@@H](CCCNC(=N)N)C(=O)N[C@@H](CCCNC(=N)N)C(=O)N[C@@H](CCCNC(=N)N)C(=O)O)C1=O)c(C)c3CCC(=O)OCC (some centres unmarked) [PTCPTE-CFR9] (H-C(X1)FRRRRRRRRR-OH; N-terminus assumed) |  | higher intracellular uptake than PTCPTE-TAT | about 2 microseconds | 93 to 95% | increase in probe lifetime on FCCP stimulation (PC12 cells [2]): 2 us; average fluorescence signals (cell loading) (PC12 cells [1]; after 24 h of loading): about 200,000 counts
PEPP5: MTS-CGR9 peptide MGRTVVVLGGGISGLAAGCGRRRRRRRRR labelled with PTCPTE-MI derivative (PTCPTE-MI label) |  |  |  |  | cell-penetrating / cell-loading ability (in words) (cells [4]): high cell loading efficiency
CC1=C(CCC(=O)O)c2cc3[nH]c(cc4nc(cc5[nH]c(cc1n2)c(CCC(=O)O)c5C)C(CCC(=O)NCCc1ccc(NC(=S)N[C@@H](Cc2ccccc2)C(=O)N[C@@H](CCCNC(=N)N)C(=O)N[C@@H](CCCNC(=N)N)C(=O)N[C@@H](CCCNC(=N)N)C(=O)N[C@@H](CCCNC(=N)N)C(=O)N[C@@H](CCCNC(=N)N)C(=O)N[C@@H](CCCNC(=N)N)C(=O)N[C@@H](CCCNC(=N)N)C(=O)N[C@@H](CCCNC(=N)N)C(=O)N[C@@H](CCCNC(=N)N)C(=O)O)cc1)=C4C)c(CCC(=O)O)c3C [PtCP-FR9] (X2-[X3]FRRRRRRRRR-OH; C-terminus assumed) | did not load well | low uptake | about 2 microseconds | 93 to 95% | 
Pt-tetrakis(pyridinium)porphine tetrachloride |  |  |  |  | toxicity on cells (in words) (cells [5]): high cyto- and phototoxicity
